# In publication PMC11413854, “Reversible Control of Native GluN2B-Containing NMDA Receptors with Visible Light” (ACS Chemical Neuroscience, 2024):
# Where “and” joins values, the source holds several entries; their conditions need not be identical. Identical values can stand only once. Like-named read-outs stand apart in the source and are kept apart here.
# Target: T1, GluN1/GluN2B receptors (UniProt P35439+Q01097)
# T1 construct: expressed in transfected cells; host or cells: HEK-293 cells (ECACC, Cat #96121229)
# T1 sequence (Q01097 27-1482, other chains not shown): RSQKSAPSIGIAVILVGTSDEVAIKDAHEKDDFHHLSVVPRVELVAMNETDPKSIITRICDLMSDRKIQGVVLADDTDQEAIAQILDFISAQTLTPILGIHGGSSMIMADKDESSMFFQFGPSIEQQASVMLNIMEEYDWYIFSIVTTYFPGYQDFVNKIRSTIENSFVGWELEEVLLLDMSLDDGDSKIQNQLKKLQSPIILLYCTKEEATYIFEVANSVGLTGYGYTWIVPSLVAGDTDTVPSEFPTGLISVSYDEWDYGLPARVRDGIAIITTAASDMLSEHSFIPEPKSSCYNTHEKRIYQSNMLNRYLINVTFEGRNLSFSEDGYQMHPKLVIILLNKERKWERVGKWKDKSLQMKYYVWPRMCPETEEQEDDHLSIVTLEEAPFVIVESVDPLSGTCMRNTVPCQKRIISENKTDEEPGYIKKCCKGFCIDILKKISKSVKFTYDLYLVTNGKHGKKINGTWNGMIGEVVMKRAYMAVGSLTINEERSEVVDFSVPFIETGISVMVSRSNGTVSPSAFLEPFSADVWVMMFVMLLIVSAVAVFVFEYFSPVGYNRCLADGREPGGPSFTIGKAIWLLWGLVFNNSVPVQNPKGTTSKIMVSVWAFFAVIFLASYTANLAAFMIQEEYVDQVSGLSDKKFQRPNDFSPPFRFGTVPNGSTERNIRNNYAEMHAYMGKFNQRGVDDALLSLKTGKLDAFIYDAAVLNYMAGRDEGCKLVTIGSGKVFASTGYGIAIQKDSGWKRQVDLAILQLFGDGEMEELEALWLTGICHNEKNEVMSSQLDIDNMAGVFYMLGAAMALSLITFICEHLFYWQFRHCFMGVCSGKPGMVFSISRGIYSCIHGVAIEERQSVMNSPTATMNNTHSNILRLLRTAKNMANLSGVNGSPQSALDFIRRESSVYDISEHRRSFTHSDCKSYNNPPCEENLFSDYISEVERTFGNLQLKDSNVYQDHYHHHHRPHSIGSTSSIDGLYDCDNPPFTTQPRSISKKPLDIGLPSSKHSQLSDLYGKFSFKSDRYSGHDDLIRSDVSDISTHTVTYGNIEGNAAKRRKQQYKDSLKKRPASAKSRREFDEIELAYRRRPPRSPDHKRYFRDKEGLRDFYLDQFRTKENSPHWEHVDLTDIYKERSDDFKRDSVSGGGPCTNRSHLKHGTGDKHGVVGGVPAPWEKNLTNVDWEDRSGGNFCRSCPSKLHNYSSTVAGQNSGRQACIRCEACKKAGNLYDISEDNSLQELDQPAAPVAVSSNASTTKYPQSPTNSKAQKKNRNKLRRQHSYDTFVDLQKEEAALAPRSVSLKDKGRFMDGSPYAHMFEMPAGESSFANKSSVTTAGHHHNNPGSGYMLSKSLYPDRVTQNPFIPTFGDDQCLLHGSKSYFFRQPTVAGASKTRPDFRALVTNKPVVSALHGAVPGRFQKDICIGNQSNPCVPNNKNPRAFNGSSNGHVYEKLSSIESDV
# Assay: Whole-cell patch-clamp and photomodulation in HEK cells expressing GluN1/GluN2B
# Assay type: cell-based, rat GluN1, mouse GluN2B
# Settings: for inhibition of GluN1/GluN2B currents in HEK cells: 2 µM; for inhibition at 2 µM: HEK293, 2 µM, read-out: inhibition of GluN1/GluN2B currents in HEK cells
# Description: Now that we have established the photodependence of OptoNAM-3 action, we tested whether this compound could be used to perform real-time modulation of NMDAR activity with light. To answer this question, we turned to mammalian cells, whose transparency allows homogeneous illumination of all membrane-expressed NMDARs. OptoNAM-3 was perfused together with agonists glutamate and glycine on HEK cells expressing GluN1/GluN2B receptors. […] OptoNAM-3 thus allows real-time and reversible inhibition of GluN1/GluN2B activity with light. By plotting the effect of different concentrations of OptoNAM-3 in the dark and during UV illumination, we observed a 20-fold UV-induced shift of OptoNAM-3 IC50 compared to the dark condition (Figure 4C). […] The stronger photodependence of OptoNAM-3 action on HEK cells might stem either from differences between cellular expression systems (Xenopus oocytes vs HEK cells) or from the different irradiation contexts (in solution for experiments in Xenopus oocytes and in a cellular context for HEK cells) (see below).
# HEK293 cells were used for heterologous expression of recombinant NMDA receptors studies using whole-cell patch-clamp. Wild-type NMDARs were expressed in HEK-293 cells (obtained from ECACC, Cat #96121229). HEK cells were cultured in DMEM + glutamax medium supplemented with 10% fetal bovine calf serum and 1% penicillin/streptomycin (5000 U/mL) and cultured under standard cell culture conditions (5% CO2, 37 °C). Transfections were performed using polyethylenimine (PEI) in a cDNA/PEI ratio of 1:3 (v/v). Cells were cotransfected with a DNA mixture containing plasmids encoding wild-type GluN1, wild-type GluN2A or GluN2B, and eGFP. The total amount of DNA was 1.0 μg per 500 μL of transfected medium containing […] diameter coverslip, and the mass ratio of GluN1:GluN2B:eGFP was 1:2:1 (1:1:1 for GluN2A). 150 μM of D-APV was added to the culture medium after transfection.
# Receptor functionality, OptoNAM-3 photodependence (dark then UV light) of activity, and association/dissociation kinetics (with and without UV light) were assessed in patch-clamp recordings of lifted whole cells 24–72 h post transfection (cells were not lifted for the 2 light cycles protocol, i.e., when “perfusion turned off” was written below current traces). Positively transfected cells were visualized by GFP fluorescence. The extracellular solution contained (in mM) 140 NaCl, 2.8 KCl, 1 CaCl2, 10 HEPES, 20 sucrose, and 0.01 DTPA (290–300 mOsm), pH adjusted to 7.3 using NaOH. […] Currents were sampled at 10 kHz and low-pass filtered at 2 kHz using an Axopatch 200B amplifier, a 1550B Digidata, and Clampex 10.6 (Molecular Devices). Agonists (100 μM glutamate and 100 μM glycine) were applied using a multibarrel solution exchanger (RSC 200; BioLogic). Recordings were performed at a holding potential of −60 mV and at room temperature.
# Computer-controlled light pulses during electrophysiological recordings were provided from high power sensitive LEDs (CoolLED pE-4000: 4 channels each controlling 4 wavelengths from 365 to 770 nm). The LED port was directly coupled via a microscope adaptor to the fluorescence port of an inverted IX73 Olympus microscope. The output beam of the LED entry was directed toward the sample thanks to a mirror (Chroma) and applied to the center of the recording dish through a 10× objective (irradiance ∼4 mW/mm^2 for 365, 385, and 435 nm; ∼6.5 mW/mm^2 for 460 nm; ∼2 mW/mm^2 for 490 and 525 nm; ∼1.5 mW/mm^2 for 500 nm, and ∼4.5 mW/mm^2 for 550 and 580 nm) (Olympus, 0.30 N.A.). Light power was measured in the center of the recording dish plane with an optical power meter (1916-C, Newport) equipped with a calibrated UV/D detector, and irradiance was obtained upon dividing light power by the illuminated field of the microscope 10× objective (19 mm^2).
# Data were collected and analyzed using pClamp 10.5 (Molecular Devices) and fitted using Sigmaplot 11.0 (SSPS). […]
# [1] = 550 nm illumination from UV state
smiles,measurement,setting,value
"c1ccc(/N=N/c2ccc(CCNc3ccncc3)cc2)cc1 [OptoNAM-3, (E)-N-(4-(Phenyldiazenyl)phenethyl)pyridin-4-amine]",inhibition of GluN1/GluN2B currents in HEK cells,[1],58.559%
same,inhibition of GluN1/GluN2B currents in HEK cells,dark,76.928%
same,inhibition of GluN1/GluN2B currents in HEK cells,under 365 nm illumination,23.428%
same,inhibition at 2 µM,[1],59%
same,inhibition at 2 µM,dark,77%
same,inhibition at 2 µM,under 365 nm illumination,23%
same,tau off of inhibition relief under UV illumination,"HEK cells, 365 nm",0.814 s
same,tau off of inhibition relief by washout in the dark,"HEK cells, dark",30.520 s
same,Relative current (IOpto/I0),"[OptoNAM-3] 0.050 µM, HEK cells, 365 nm illumination",0.936
same,Relative current (IOpto/I0),"[OptoNAM-3] 0.050 µM, HEK cells, dark PSS (trans)",0.679
same,Relative current (IOpto/I0),"[OptoNAM-3] 0.125 µM, HEK cells, 365 nm illumination",0.926
same,Relative current (IOpto/I0),"[OptoNAM-3] 0.125 µM, HEK cells, dark PSS (trans)",0.513
same,Relative current (IOpto/I0),"[OptoNAM-3] 0.300 µM, HEK cells, 365 nm illumination",0.848
same,Relative current (IOpto/I0),"[OptoNAM-3] 0.300 µM, HEK cells, dark PSS (trans)",0.435
same,Relative current (IOpto/I0),"[OptoNAM-3] 0.500 µM, HEK cells, dark PSS (trans)",0.261
same,Relative current (IOpto/I0),"[OptoNAM-3] 1.000 µM, HEK cells, 365 nm illumination",0.722
same,Relative current (IOpto/I0),"[OptoNAM-3] 1.000 µM, HEK cells, dark PSS (trans)",0.205
same,Relative current (IOpto/I0),"[OptoNAM-3] 1.500 µM, HEK cells, 365 nm illumination",0.713
same,Relative current (IOpto/I0),"[OptoNAM-3] 1.500 µM, HEK cells, dark PSS (trans)",0.181
same,Relative current (IOpto/I0),"[OptoNAM-3] 2.000 µM, HEK cells, 365 nm illumination",0.705
same,Relative current (IOpto/I0),"[OptoNAM-3] 2.000 µM, HEK cells, dark PSS (trans)",0.166
same,Relative current (IOpto/I0),"[OptoNAM-3] 2.500 µM, HEK cells, 365 nm illumination",0.442
same,Relative current (IOpto/I0),"[OptoNAM-3] 2.500 µM, HEK cells, dark PSS (trans)",0.034
same,IC50,"cell illuminated at 365 nm, read-out: IC50 on GluN1/GluN2B in HEK cells illuminated at 365 nm",2950 nM and 3000 nM
same,IC50,"dark, read-out: IC50 on GluN1/GluN2B in HEK cells in the dark",150 nM
